Marks after values point to notes of the source that are not given here.
How the values were obtained:
HCV NS3/4A protease = HCV NS3/4A protease (Hepatitis C virus genotype 1a, UniProt P27958); test: Inhibition against HCV protease; assay type: biochemical; conditions: for IC50: HCV NS3/4A protease 0.5 μg/ml, 30 min, room temperature; for HCV protease inhibitory activity relative to embelin: fold stronger than embelin
Method: An aliquot (2 μl) of test compounds dissolved in DMSO was added to each well of a 384-well black Assay plate, followed by addition of 8 μl of HCV NS3/4A protease solution (0.5 μg/ml). The reaction was initiated by adding 10 μl of freshly diluted substrate (100× dilution of a DMSO stocking solution). The mixture was incubated at room temperature for 30 min, and the fluorescence intensity was measured at 485 nm for excitation and 535 nm for emission by a TECAN GENios plate reader. […] All fluorescence values were corrected with a substrate blank. Samples were assayed at different concentrations to plot a concentration VS. inhibition percentage curve, and IC50 values were obtained from the curve for each sample. A known HCV protease inhibitor, embelin, was used as a reference. Discussion

Human LDL = test: Inhibition of copper-induced LDL-cholesterol oxidation; conditions: CuSO4-induced, 37° C., 22 hours
Method: Human LDL solution was dialyzed overnight in PBS (10 mM, 0.15M NaCl, pH 7.4) at 4° C. under nitrogen blanket prior to the test. Sample solutions were prepared by dissolving the test compounds in ethanol at concentration of 500 μM. Ten microliters of sample solutions were transferred into a set of Eppendorf tubes, and the solvent was evaporated to dryness under a nitrogen stream. To each tube 0.1 ml of PBS was added, followed by vortexing for 1 min. An aliquot (0.8 ml) of the dialyzed and diluted LDL solution (0.125 mg/ml) was added to each tube, and the contents were mixed well and incubated at 37° C. for 15 min. The reaction was initiated by adding 0.1 ml of CuSO4 (20 μM, previously incubated). A blank containing only sample without LDL or CuSO4 was prepared for each test compound. After incubation of the reaction mixture at 37° C. for 22 hours, the conjugated dienes formed as a result of oxidation were measured spectrophotometrically at 234 nm. […] All absorbances for samples were blank-corrected. Discussion

[1] = Inhibition against UV-induced liposome oxidation; conditions: UV 254 nm, 45 min
Method: To prepare liposome MLV, 10 mg of egg yolk PC were dissolved in a small amount of chloroform in a round bottom flask and the solvent was removed using a rotary evaporator followed by nitrogen flush. The thin film on the inner surface of the flask was suspended in 10 ml of PBS (10 mM, pH7.4, 150 mM NaCl) by vortex and sonication, and the emulsion was then repeatedly frozen and thawed for 4 times. The liposomal MLV obtained were diluted by 90 ml of PBS, and an aliquot (750 μL) was transferred into an Eppendorf tube containing 10 μL of test compounds dissolved in ethanol and 240 μL of PBS. The content was mixed well and incubated at 37° C. for 15 min. After incubation, the mixture was exposed to UV irradiation (254 nm) for 45 min. The oxidation was detected by measuring conjugated dienes (CD) spectrophotometically at 234 nm against a blank without liposome (test compounds+PBS). Conjugated diene values were calculated as follows using blank-corrected absorbances. CD(mol/g of PC)=Abs./εLC, where ε is the absorptivity constant (29500 M^−1cm^−1), L is the length of the cuvette (1 cm) and C is the final concentration of PC (g/L). […] Discussion

[2] = Lipophilicity, octanol-water partition coefficient by shake flask method; assay type: physicochemical; conditions: 22° C., P=log Ax/(A0−Ax)
Method: Lipophilicity of the identified EGCG derivatives was determined as octanol-water partition coefficient (P) by a shake flask method. Briefly, a flask containing a mixture of octanol (100 ml) and deionized water (100 ml) was shaken in a shaking waterbath at room temperature (22° C.) for 24 hours. The content was then allowed to stand for 24 hours for separation into two phases. Test compounds (0.2 μmol) were dissolved in 5 ml of the upper phase (pre-saturated octanol), and the absorbance (A0) was read at 280 nm. A blank with no sample was prepared. Five milliliters of the bottom phase (pre-saturated water) were added afterwards, and the mixtures were vortexed for 1 min and allowed to stand for 24 hours for separation. Absorbance (Ax) of the upper phase in the vials was measured and octanol-water partition coefficient (P) calculated using the following equation: P=log Ax/(A0−Ax), where blank-corrected absorbance was used.

Sequence of HCV NS3/4A protease (P27958 1027-1657): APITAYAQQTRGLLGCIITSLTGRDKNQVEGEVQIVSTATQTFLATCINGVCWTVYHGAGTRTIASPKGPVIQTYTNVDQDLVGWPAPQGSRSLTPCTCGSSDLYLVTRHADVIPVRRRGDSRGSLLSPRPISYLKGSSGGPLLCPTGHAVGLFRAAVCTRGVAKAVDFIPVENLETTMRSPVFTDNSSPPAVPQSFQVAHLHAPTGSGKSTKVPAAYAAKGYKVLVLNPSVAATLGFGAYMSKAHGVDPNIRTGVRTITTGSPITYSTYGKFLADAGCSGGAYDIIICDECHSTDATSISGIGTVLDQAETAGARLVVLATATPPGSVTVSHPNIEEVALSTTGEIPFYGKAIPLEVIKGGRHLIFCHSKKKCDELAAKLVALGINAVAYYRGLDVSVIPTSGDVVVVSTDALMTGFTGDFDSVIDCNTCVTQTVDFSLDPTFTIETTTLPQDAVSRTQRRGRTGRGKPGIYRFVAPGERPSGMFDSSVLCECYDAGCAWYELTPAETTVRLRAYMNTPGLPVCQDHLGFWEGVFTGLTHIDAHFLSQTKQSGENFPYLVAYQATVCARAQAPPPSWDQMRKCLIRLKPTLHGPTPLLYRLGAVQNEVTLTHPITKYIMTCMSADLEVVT
Sequence of HCV NS3/4A protease (P27958 1658-1711): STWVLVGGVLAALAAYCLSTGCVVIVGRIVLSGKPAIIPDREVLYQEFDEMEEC

SMILES	IC50 (HCV NS3/4A protease) [nM]	HCV protease inhibitory activity relative to embelin (HCV NS3/4A protease)	Inhibition of LDL-cholesterol oxidation (conjugated diene formation) (Human LDL) [%]	% inhibition of UV-induced liposome oxidation (conjugated dienes) [1] [%]	logP [2]	Lipophilicity (partition coefficient, P) [2]
CCCCCCCCCCCCCCCCCC(=O)Oc1cc(C(=O)OC2Cc3c(O)cc(O)cc3OC2c2cc(OC(=O)CCCCCCCCCCCCCCCCC)c(O)c(OC(=O)CCCCCCCCCCCCCCCCC)c2)cc(OC(=O)CCCCCCCCCCCCCCCCC)c1O (stereo not shown) [Compound 1a, EGCG stearate]	130	approximately 80 fold	16.33	47.59	1.42 ± 0.02	
CCC=CCC=CCC=CCC=CCC=CCCCC(=O)Oc1cc(C(=O)OC2Cc3c(O)cc(O)cc3OC2c2cc(OC(=O)CCCC=CCC=CCC=CCC=CCC=CCC)c(O)c(OC(=O)CCCC=CCC=CCC=CCC=CCC=CCC)c2)cc(OC(=O)CCCC=CCC=CCC=CCC=CCC=CCC)c1O (stereo not shown) [Compound 1b]	6	1700 fold	11.80	3.47		1.10 ± 0.06 ^b
CCC=CCC=CCC=CCC=CCC=CCC=CCCC(=O)Oc1cc(C(=O)OC2Cc3c(O)cc(O)cc3OC2c2cc(OC(=O)CCC=CCC=CCC=CCC=CCC=CCC=CCC)c(O)c(OC(=O)CCC=CCC=CCC=CCC=CCC=CCC=CCC)c2)cc(OC(=O)CCC=CCC=CCC=CCC=CCC=CCC=CCC)c1O (stereo not shown) [Compound 1c]	6	1700 fold	8.18	16.22		1.03 ± 0.10 ^b
O=C(O[C@@H]1Cc2c(O)cc(O)cc2O[C@@H]1c1cc(O)c(O)c(O)c1)c1cc(O)c(O)c(O)c1 [EGCG, Epigallocatechin gallate, reference compound]	> 200000		6.53	9.53	0.48 ± 0.01	

Reference: patent publication US9018248B2, “Fatty acid derivatives of catechins and methods of their use” (Genesis Group Inc., priority 2010, dated 2015)
